According to patent publication US10485836B2, “Anti-fatigue composition used for increasing endurance performance, and use of the same” (SINPHAR PHARMACEUTICAL CO., LTD., priority 2017, dated 2019):

Tests used:
C2C12 muscle cells [1] = assay: Oxygen consumption rate of TNF-α damaged muscle cells (Seahorse XF24); assay type: cell-based, mice; conditions: TNF-α 10 ng/ml, relative to control group (1-fold); for oxygen consumption of ATP production: FIG. 1A; for oxygen consumption of maximal respiration: FIG. 1B
Source text: (§1) It is known that severe exercise or long-term exercise may lead to a large release of tumor necrosis factor alpha (TNF-α) and a decrease in mitochondria functions such as oxygen consumption rate (OCR, which represents the ability of aerobic metabolism of mitochondria) and extracellular acidification rate (ECAR, which represents the ability of glycolysis of mitochondria), so that the mitochondria cannot generate enough energy to supply cells in a subject, thereby resulting in the occurrence of fatigue in the subject. In this example, the C2C12 muscle cells with TNF-α induced damages were administered with the composition of the present invention, which comprises Cistanche tubulosa extract and ubiquinol, to understand the effect of the composition on anti-fatigue.
First, C2C12 cells (i.e., the muscle cells of mice; purchased from ATCC) were cultivated in an H-DMEM medium (purchased from Sigma company) containing 10% fetal bovine serum (purchased from BI company). After the C2C12 cells grew to the confluence rate of 80% (i.e., the mixed monolayer cells were accounted for 80% of the area), the cells were divided into seventeen groups (including a control group, a TNF-α group and fifteen experimental groups) and separately subjected to the following treatments: • 1. Control group: cells were cultivated in an H-DMEM medium for 6 hours; and then, the medium was replaced with a differentiation medium (containing an H-DMEM medium and 2% horse serum), and the cells were continuously cultivated for another 4 days. • 2. TNF-α group: cells were cultivated in an H-DMEM medium for 6 hours; and then, the medium was replaced with a differentiation medium (containing an H-DMEM medium and 2% horse serum) being externally added with TNF-α (to a final concentration of 10 ng/ml), and the cells were continuously cultivated overnight; finally, the medium was replaced with a differentiation medium, and the cells were cultivated for another 4 days. • 3. […] In Table 1, the extract and ubiquinol were dissolved in a differentiation medium, and the unit “μg/ml” represents the weight of extract (as dry weight) and/or ubiquinol (as dry weight) in every milliliter of the differentiation medium.
The cells in the control group, TNF-α group and experimental groups 1 to 15 provided by Example (1-1) were respectively taken, and the oxygen consumption rates (including the oxygen consumption of ATP production and the oxygen consumption of maximal respiration) thereof were examined by a cell energy metabolism analyzer (Seahorse XF24). Then, the result of the control group was served as a basis (i.e., the oxygen consumption rate of the control group was set as 1-fold) to calculate the oxygen consumption rate of each group.

C2C12 muscle cells [2] = assay: Extracellular acidification rate of TNF-α damaged muscle cells (cell energy metabolism analyzer); assay type: cell-based, mice; conditions: TNF-α 10 ng/ml, relative to control group (1-fold)
Source text: as §1
First, C2C12 cells (i.e., the muscle cells of mice; purchased from ATCC) were cultivated in an H-DMEM medium (purchased from Sigma company) containing 10% fetal bovine serum (purchased from BI company). After the C2C12 cells grew to the confluence rate of 80% (i.e., the mixed monolayer cells were accounted for 80% of the area), the cells were divided into seventeen groups (including a control group, a TNF-α group and fifteen experimental groups) and separately subjected to the following treatments: • 1. […]

| Compound | oxygen consumption of ATP production (C2C12 muscle cells [1]) | oxygen consumption of maximal respiration (C2C12 muscle cells [1]) | glycolysis level (C2C12 muscle cells [2]; FIG. 2A) | glycolytic reserve (C2C12 muscle cells [2]; FIG. 2B) |
| --- | --- | --- | --- | --- |
| COc1c(O)c(C)c(C/C=C(\C)CC/C=C(\C)CC/C=C(\C)CC/C=C(\C)CC/C=C(\C)CC/C=C(\C)CC/C=C(\C)CC/C=C(\C)CC/C=C(\C)CCC=C(C)C)c(O)c1OC [ubiquinol] | cannot alleviate | cannot alleviate | – | – |
| TNF-α | significantly decreased | significantly decreased | significantly increased | significantly decreased |
